Patent US20260158009A1 (GENZYME CORPORATION, priority 2023, published 2026)

Tests used:
[1] = target: T1, hRIPK1 (aa 1-375) fusion protein (Homo sapiens, UniProt Q13546); test: ADP-Glo kinase assay: catalytic activity of RIPK1 (autophosphorylation, conversion of ATP to ADP); assay type: biochemical
T1 construct: hRIPK1 (aa 1-375) fusion protein
T1 sequence (Q13546 1-375): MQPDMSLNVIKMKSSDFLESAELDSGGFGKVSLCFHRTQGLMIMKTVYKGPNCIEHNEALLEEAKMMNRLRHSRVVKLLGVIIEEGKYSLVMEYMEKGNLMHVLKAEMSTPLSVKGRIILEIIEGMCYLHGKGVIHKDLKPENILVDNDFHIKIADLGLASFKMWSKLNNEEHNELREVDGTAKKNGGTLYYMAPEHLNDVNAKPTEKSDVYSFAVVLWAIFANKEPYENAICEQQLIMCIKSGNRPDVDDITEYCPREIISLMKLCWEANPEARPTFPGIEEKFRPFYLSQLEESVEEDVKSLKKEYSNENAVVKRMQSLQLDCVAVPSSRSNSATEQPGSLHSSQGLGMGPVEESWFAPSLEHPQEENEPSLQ
Procedure, shortened: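 The readout was ADP-Glo luminescence after a 240 min rt autophosphorylation reaction with 50 μM ATP, following 30 min preincubation of 3.6 μg/ml hRIPK1 (aa 1-375) fusion with compound at 33300-1.69 nM final in 1% DMSO. Values came from Levenberg-Marquardt nonlinear fits.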

[2] = test system: U937 cells; test: Cellular assay in U937 cells: activity of RIPK1 inhibitors on TNFα/zVAD.fmk-induced cell death (necroptosis), CellTiter 96 AQueous (MTS) readout; assay type: cell-based; details: Homo sapiens, U-937
Procedure, shortened: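 Necroptosis was measured by viable-cell MTS reduction (4 h, absorbance 490 nm) after overnight (18–24 h) 37° C culture. Cell suspensions of U937 cells carried TNFα (100 ng/ml) plus zVAD.fmk (50 μM) before compound was added. A 10-point curve (10 μM–0.26 nM or 1 μM–0.07 nM) was run in duplicate, normalised to the control lacking TNFα/zVAD.fmk.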

Compound | IC50 [1] [nM] | IC50 [2] [nM]
Cc1cn2cc(C[C@H]3CC[C@H](C(=O)N4OCC[C@H]4c4cc(F)cc(F)c4)CC3)ccc2n1 [compound 227, trans-[(3S)-3-(3,5-difluorophenyl)isoxazolidin-2-yl]-[4-[(2-methylimidazo[1,2-a]pyridin-6-yl)methyl]cyclohexyl]methanone] | 23 | 5
NC(=O)c1ccc2c(ccn2C[C@H]2CC[C@H](C(=O)N3OCC[C@H]3c3ccccn3)CC2)c1 [compound 255, trans-1-[[4-[(3S)-3-(2-pyridyl)isoxazolidine-2-carbonyl]cyclohexyl]methyl]indole-5-carboxamide] | 25 | 521
Cc1cc(C[C@H]2CC[C@H](C(=O)N3OCC[C@H]3c3ccc(F)cc3)CC2)cn2c(C)nnc12 [compound 319, trans-[4-[(3,8-dimethyl-[1,2,4]triazolo[4,3-a]pyridin-6-yl)methyl]cyclohexyl]-[(3S)-3-(4-fluorophenyl)isoxazolidin-2-yl]methanone] | 14 | 33
Cc1nc([C@@H]2CCON2C(=O)[C@H]2CC[C@H](Cn3ccc4ncc(C#N)cc43)CC2)cs1 [compound 198, trans-1-[[4-[(3S)-3-(2-methylthiazol-4-yl)isoxazolidine-2-carbonyl]cyclohexyl]methyl]pyrrolo[3,2-b]pyridine-6-carbonitrile] | 17 | 7
O=C([C@H]1CC[C@H](Cc2ccc(C3(O)COC3)cc2)CC1)N1OCC[C@H]1c1cc(F)cc(F)c1 [compound 171, trans-[(3S)-3-(3,5-difluorophenyl)isoxazolidin-2-yl]-[4-[[4-(3-hydroxyoxetan-3-yl)phenyl]methyl]cyclohexyl]methanone] | 19 | 6
Cc1nc2c(C)cc(C[C@H]3CC[C@H](C(=O)N4OCC[C@H]4c4cnccn4)CC3)cn2n1 [compound 326, trans-[4-[(2,8-dimethyl-[1,2,4]triazolo[1,5-a]pyridin-6-yl)methyl]cyclohexyl]-[(3S)-3-pyrazin-2-ylisoxazolidin-2-yl]methanone] | 51 | 59
CNC(=O)c1ccc(F)c(C[C@H]2CC[C@H](C(=O)N3OCC[C@H]3c3cncc(F)c3)CC2)c1 [compound 172, trans-4-fluoro-3-[[4-[(3S)-3-(5-fluoro-3-pyridyl)isoxazolidine-2-carbonyl]cyclohexyl]methyl]-N-methyl-benzamide] | 16 | 9
Cc1nc2cc(C[C@H]3CC[C@H](C(=O)N4OCC[C@H]4c4cnccn4)CC3)ccn2n1 [compound 374, trans-[4-(2-Methyl-[1,2,4]triazolo[1,5-a]pyridin-7-ylmethyl)-cyclohexyl]-((S)-3-pyrazin-2-yl-isoxazolidin-2-yl)-methanone] | 36 | 55
N#Cc1cncc([C@@H]2CCON2C(=O)[C@H]2CC[C@H](Cc3cc(F)cc(CO)c3)CC2)c1 [compound 257, trans-5-[(3S)-2-[4-[[3-fluoro-5-(hydroxymethyl)phenyl]methyl]cyclohexanecarbonyl]isoxazolidin-3-yl]pyridine-3-carbonitrile] | 10 | 2
Cc1nccn1-c1cc(F)cc(C[C@H]2CC[C@H](C(=O)N3OCC[C@H]3c3ccc(F)cc3)CC2)c1 [compound 207, trans-[4-[[3-fluoro-5-(2-methylimidazol-1-yl)phenyl]methyl]cyclohexyl]-[(3S)-3-(4-fluorophenyl)isoxazolidin-2-yl]methanone] | 23 | 53
Cc1ccc(C[C@H]2CC[C@H](C(=O)N3OCC[C@H]3c3cncc(C#N)c3)CC2)cc1C(N)=O [compound 158, trans-5-[[4-[(3S)-3-(5-cyano-3-pyridyl)isoxazolidine-2-carbonyl]cyclohexyl]methyl]-2-methyl-benzamide] | 9 | 33
Cc1ccc(C[C@H]2CC[C@H](C(=O)N3OCC[C@H]3c3cnccn3)CC2)cc1C(N)=O [compound 138, trans-2-methyl-5-[[4-[(3S)-3-pyrazin-2-ylisoxazolidine-2-carbonyl]cyclohexyl]methyl]benzamide] | 18 | 25
Cc1cc(C[C@H]2CC[C@H](C(=O)N3OCC[C@H]3c3cnc(C)c(F)c3)CC2)c(C)cn1 [compound 332, trans-[4-[(2,5-dimethylpyridin-4-yl)methyl]cyclohexyl]-[(3S)-3-(5-fluoro-6-methylpyridin-3-yl)-1,2-oxazolidin-2-yl]methanone] | 12 | 3
Cn1nccc1C[C@H]1CC[C@H](C(=O)N2OCC[C@H]2c2cnccn2)CC1 [compound 238, trans-[4-[(2-methylpyrazol-3-yl)methyl]cyclohexyl]-[(3S)-3-pyrazin-2-ylisoxazolidin-2-yl]methanone] | 41 | 257
Cc1cn2ncc(C[C@H]3CC[C@H](C(=O)N4OCC[C@H]4c4cnccn4)CC3)cc2n1 [compound 349, trams-[4-[(2-methylimidazo[1,2-b]pyridazin-7-yl)methyl]cyclohexyl]-[(3S)-3-pyrazin-2-yl-1,2-oxazolidin-2-yl]methanone] | 42 | 108
N#Cc1cncc([C@@H]2CCON2C(=O)[C@H]2CC[C@H](Cn3cc(C#N)ccc3=O)CC2)c1 [compound 122, trans-1-[[4-[(3S)-3-(5-cyano-3-pyridyl)isoxazolidine-2-carbonyl]cyclohexyl]methyl]-6-oxo-pyridine-3-carbonitrile] | 125 | 797

Second part, led by results:

IC50 [1] [nM] | Compound | IC50 [2] [nM]
18 | Cc1cc([C@@H]2CCON2C(=O)[C@H]2CC[C@H](Cn3ncc4ccc(C#N)cc43)CC2)co1 [compound 43, trans-1-((4-((S)-3-(5-methylfuran-3-yl)isoxazolidine-2-carbonyl)cyclohexyl)methyl)-1H-indazole-6-carbonitrile] | 1
34 | Cc1nc2cc(F)ccc2n1C[C@H]1CC[C@H](C(=O)N2OCC[C@H]2c2cc(F)cc(F)c2)CC1 [compound 51, trans-((S)-3-(3,5-difluorophenyl)isoxazolidin-2-yl)(4-((5-fluoro-2-methyl-1H-benzo[d]imidazol-1-yl)methyl)cyclohexyl)methanone] | 17
50 | N#Cc1cc(F)cc([C@@H]2CCON2C(=O)[C@H]2CC[C@H](Cn3ccc4ncccc43)CC2)c1 [compound 14, trans-3-((S)-2-(4-((1H-pyrrolo[3,2-b]pyridin-1-yl)methyl)cyclohexane-1-carbonyl)isoxazolidin-3-yl)-5-fluorobenzonitrile] | 3
32 | Cc1ncn(C[C@H]2CC[C@H](C(=O)N3OCC[C@H]3c3cc(F)cc(F)c3)CC2)c1C [compound 83, trans-((S)-3-(3,5-difluorophenyl)isoxazolidin-2-yl)(4-((4,5-dimethyl-1H-imidazol-1-yl)methyl)cyclohexyl)methanone] | 22
28 | N#Cc1cc(F)cc([C@@H]2CCON2C(=O)[C@H]2CC[C@H](Cn3cnc4cc(C(N)=O)c(F)cc43)CC2)c1 [compound 74, trans-1-((4-((S)-3-(3-cyano-5-fluorophenyl)isoxazolidine-2-carbonyl)cyclohexyl)methyl)-6-fluoro-1H-benzo[d]imidazole-5-carboxamide] | 106
10 | Cc1nc2ccc(C[C@H]3CC[C@H](C(=O)N4OCC[C@H]4c4cc(F)cc(F)c4)CC3)nn2n1 [compound 315, [(3S)-3-(3,5-difluorophenyl)-1,2-oxazolidin-2-yl]-[4-[(2-methyl-[1,2,4]triazolo[1,5-b]pyridazin-6-yl)methyl]cyclohexyl]methanone] | 20
14 | Cc1ncc(C[C@H]2CC[C@H](C(=O)N3OCC[C@H]3c3cc(F)cc(F)c3)CC2)cn1 [compound 264, trans-[(3S)-3-(3,5-difluorophenyl)isoxazolidin-2-yl]-[4-[(2-methylpyrimidin-5-yl)methyl]cyclohexyl]methanone] | 16
19 | Cc1nc2ccc(C[C@H]3CC[C@H](C(=O)N4OCC[C@H]4c4cc(F)cc(F)c4)CC3)cn2n1 [compound 223, trans-[(3S)-3-(3,5-difluorophenyl)isoxazolidin-2-yl]-[4-[(2-methyl-[1,2,4]triazolo[1,5-a]pyridin-6-yl)methyl]cyclohexyl]methanone] | 5
31 | Cc1cc(C[C@H]2CC[C@H](C(=O)N3OCC[C@H]3c3cc(F)cc(C#N)c3)CC2)cnn1 [compound 302, trans-3-fluoro-5-[(3S)-2-[4-[(6-methylpyridazin-4-yl)methyl]cyclohexanecarbonyl]isoxazolidin-3-yl]benzonitrile] | 37
19 | N#Cc1cc(F)c2cnn(C[C@H]3CC[C@H](C(=O)N4OCC[C@H]4c4cc(F)cc(F)c4)CC3)c2c1 [compound 33, trans-1-((4-((S)-3-(3,5-difluorophenyl)isoxazolidine-2-carbonyl)cyclohexyl)methyl)-4-fluoro-1H-indazole-6-carbonitrile] | 2
